Where two headings read alike, the source gives them in different places.
Key:
[1] = system: human osteoblast cultures; experiment: bone nodule formation in vitro in human osteoblast cultures (Von Kossa stain); format: cell-based; conditions: for stimulation of osteoblast cultures to form mineralized bone, Von Kossa stain (FIG. 2): different concentrations, human osteoblast cultures
Text: Human bone samples discarded after surgical procedures from patients undergoing hip/knee replacement surgeries are obtained under an approved IRB protocol (Protocol #2001-055) and processed as described below. These bone pieces are otherwise routinely discarded as waste material during surgery.
The bone pieces are thoroughly washed and cleaned under sterile conditions using phosphate-buffered saline (PBS). These pieces are then cut to obtain smaller pieces (1-2 mm^3) and subjected to enzymatic digestion process to isolate osteoblasts as described below.
Osteoblastic cells are obtained from the bone pieces by collagenase digestion. Briefly, the bone samples are washed twice in PBS and dissected in about 1 mm^3 size fragments which are then sequentially digested in trypsin (1 mg/mL) for ten minutes, followed by dispase (2 mg/mL) for twenty minutes, and bacterial collagenase [Collagenase A] (3 mg/mL) twice for thirty minutes in PBS at 37° C. in a water bath. Cells released by collagenase digestion are then washed, counted and grown to sub-confluence in 25 cm^2 cell culture flasks in 1:1 Ham's F12/Dulbecco's modification of Eagle's medium (DMEM) supplemented with 10% fetal bovine serum. Cells are cultured at 37° C. in a humidified atmosphere of 5% CO2/95% air. Medium changes are made every 2-3 days and cells are cultured until they are 80% confluent. Cells are then trypsinized, washed and frozen from early passages for evaluation using techniques as described below.
In order to evaluate the ability of osteoblasts to form bone nodules in vitro, cells are cultured in 6 well plates at 1-3×10^5 cells/well. Cells are cultured in the presence of either 1,25-(OH)2D3 or vitamin D analogs at various doses for 7 days. Complete medium changes are carried out twice during the 7-day period and the medium is supplemented with fresh compounds (either 1,25-(OH)2D3 or 2-methylene-19-nor-(20S)-1α,25-dihydroxyvitamin D3—2MD) during each medium change. At days 10 and 13, complete medium changes are carried out and the compounds are replaced by treatment with ascorbic acid (50 μg/ml) and β-glycerol phosphate (10 mM). A third dose of ascorbic acid and β-glycerol phosphate is added to the cultures on day 15 if needed. Following the culture period, cells are stained using the Von Kossa technique. Briefly, cells are stained with 5% silver nitrate for 30 minutes in the dark, rinsed with distilled water, reduced with sodium carbonate/formaldehyde solution for 2 minutes and washed under tap water for 10 minutes. The cells are then stained with methyl green pyronin for 20 minutes, washed with water followed by two washes of absolute alcohol. […] Bone nodule formation in vitro can be assessed quantitatively by various published procedures.

ovariectomized rats = conditions: ovariectomized animal/rats, cited from earlier work

In the case of `C=C1[C@H](O)CC(=C/C=C2\CCC[C@]3(C)[C@@H]([C@@H](C)CCCC(C)(C)O)CC[C@@H]23)C[C@H]1O` [2MD, 2-methylene-19-nor-(20S)-1α,25-dihydroxyvitamin D3], the “degree of new bone formation” value ([1]; concentration of 10^−12 molar) is listed as “saturating degree of new bone formation”, the “stimulation of osteoblast cultures to form mineralized bone, Von Kossa stain (FIG. 2)” value [1] is listed as “unique and strong action” and the bone mass (ovariectomized rats) is listed as “markedly stimulate bone mass accumulation”. For the same compound, the bone mass (ovariectomized rats; listed as 2-methylene-19-nor-20S-1,25-(OH)2D3) was “increase bone mass”.

For `C=C1/C(=C\C=C2/CCC[C@]3(C)[C@@H]([C@H](C)CCCC(C)(C)O)CC[C@@H]23)C[C@@H](O)C[C@@H]1O` [1,25-(OH)2D3, 1α,25-dihydroxyvitamin D3, reference compound], the “change in osteoblast cultures / formation of mineralized bone (FIG. 1)” value ([1]; 10^−8 molar, after 14 days of incubation) was “very little change” and the “stimulation of osteoblast cultures to form mineralized bone, Von Kossa stain (FIG. 2)” value [1] was “does not produce this effect”.

In the case of `CC1C(O)CC(=CC=C2CCC[C@]3(C)[C@@H]([C@@H](C)CCCC(C)(C)O)CC[C@@H]23)CC1O` (stereo partly drawn) [2α-methyl-19-nor-20S-1,25-(OH)2D3, 2α-methyl-19-nor-20(S)-1α,25-dihydroxyvitamin D3], the bone mass (ovariectomized rats) is listed as “increase bone mass”.
